Consider 36 compounds from ChEMBL document CHEMBL4483862, “Open-source discovery of chemical leads for next-generation chemoprotective antimalarials” (2018).

pIC50: −log10 of the molar value.

This test concerns Plasmodium berghei. The test is described as follows: Luciferase/luciferin-expressing antifolate-resistant parasites were used to infect a culture of HepG2 cells that were pre-incubated with compounds. Infected hepatocytes emit light due to the luciferase reaction. Assay results are presented as the percent inhibition of light emission compared to control. […]. The test is classed as functional. The following applies: sporozoite; for IC90: read-out: LUCIFERASE INFECTION ASSAY - IC90.

A word on the pIC50: it is the negative decadic logarithm of the IC50, by convention in mol/L. By IC90 is commonly meant the point of the concentration-response curve where the effect stands at 90%. Take `NC(Cc1ccc(C(F)(F)F)cc1)c1csc(NC(=O)Nc2ccccc2Cc2ccccc2)n1` (configuration not stated): the IC90 came out at 6.33 µM. For the same compound, where the note is “PBLUC_HILL_SLOPE 25.9, PBLUC_R_SQUARED 0.261, read-out: LUCIFERASE INFECTION ASSAY - IC50”, the pIC50 is 5.24.
As to `COc1ccc(-c2cc(-c3ccc(O)cc3)cnc2N)cn1`, the IC90 was 10.6 µM. Under “PBLUC_HILL_SLOPE 26.5, PBLUC_R_SQUARED 0.457, read-out: LUCIFERASE INFECTION ASSAY - IC50”, the pIC50 was 5.01.
As to `Nc1cc(C(F)(F)F)ccc1Sc1ccccn1`, the IC90 was more than 12.2 µM. The pIC50 (PBLUC_HILL_SLOPE 27.6, PBLUC_R_SQUARED 0.179, read-out: LUCIFERASE INFECTION ASSAY - IC50) is 4.93.
`O=S(=O)(c1ccc(Cl)cc1)c1nc(/C=C/c2ccccc2)oc1NCc1ccco1`: the IC90 worked out at 9.82 µM. Moreover, the pIC50 (PBLUC_HILL_SLOPE 32.9, PBLUC_R_SQUARED 0.0875, read-out: LUCIFERASE INFECTION ASSAY - IC50) was 5.04.
With `O=C(CO/N=C/c1ccc(OCc2ccccc2)c(OCc2ccccc2)c1)N1CCCCCC1`, the IC90 is more than 10 µM. In addition, for the setting “PBLUC_HILL_SLOPE 29.4, PBLUC_R_SQUARED 0.303, read-out: LUCIFERASE INFECTION ASSAY - IC50”, the pIC50 was 5.01.
Consider `Cn1c(SCc2nc3ccc(Cl)cc3n2CCO)nc2scc(-c3ccc(F)cc3)c2c1=O`, for which the IC90 was 3.59 µM. The pIC50 (PBLUC_HILL_SLOPE 30.6, PBLUC_R_SQUARED 0.504, read-out: LUCIFERASE INFECTION ASSAY - IC50) was 5.48.
As for `Cc1ccc(-c2nc(CN3C(=O)NC4(CCCCCC4)C3=O)cs2)cc1`, the IC90 is more than 10 µM. Where the note is “PBLUC_HILL_SLOPE 31.5, PBLUC_R_SQUARED 0.344, read-out: LUCIFERASE INFECTION ASSAY - IC50”, the pIC50 is 5.00.
`O=C(OCc1cc(=O)oc2cc(O)ccc12)c1ccc(Cl)c(S(=O)(=O)N2CCCCCC2)c1`: the IC90 is more than 10 µM. The pIC50 (PBLUC_HILL_SLOPE 24.9, PBLUC_R_SQUARED 0.0553, read-out: LUCIFERASE INFECTION ASSAY - IC50) was 5.03.
On to `c1nc(Nc2ccc(C34CC5CC(CC(C5)C3)C4)cc2)c2ccsc2n1`, for which the IC90 turned out to be 0.884 µM. For the same compound, for the setting “PBLUC_HILL_SLOPE 24.2, PBLUC_R_SQUARED 0.39, read-out: LUCIFERASE INFECTION ASSAY - IC50”, the pIC50 was 6.09.
For the compound `CC(C)NC(=O)c1c(NC(=O)c2cccc(Cl)c2Cl)nc2ccccn12`, the IC90 is more than 8.43 µM. For the same compound, where the note is “PBLUC_HILL_SLOPE 29.4, PBLUC_R_SQUARED 0.349, read-out: LUCIFERASE INFECTION ASSAY - IC50”, the pIC50 was 5.11.
As to `Cc1ccc(O)c(/C=N/NC(=S)NC(C)(C)C)c1`, the IC90 is more than 12.4 µM. Moreover, the negative logarithm of the IC50 (pIC50) (PBLUC_HILL_SLOPE 24.9, PBLUC_R_SQUARED 0.247, read-out: LUCIFERASE INFECTION ASSAY - IC50) is 4.93.
As to `CC(Oc1ccc2[nH]c3ccccc3c(=O)c2c1)C(=O)NC(=O)NC12CC3CC(CC(C3)C1)C2` (configuration not stated), the IC90 came out at 3.1 µM. Further, the pIC50 (PBLUC_HILL_SLOPE 24.7, PBLUC_R_SQUARED 0.64, read-out: LUCIFERASE INFECTION ASSAY - IC50) was 5.55.
Consider `Cc1ccc2sc(N(Cc3ccccc3)C(=O)CN3CCC(C(N)=O)CC3)nc2c1C`, for which the IC90 is 4.19 µM. Also, where the note is “PBLUC_HILL_SLOPE 23.7, PBLUC_R_SQUARED 0.191, read-out: LUCIFERASE INFECTION ASSAY - IC50”, the pIC50 was 5.42.
As to `Cc1cc(C(=O)ONC(=N)c2c(-c3c(Cl)cccc3Cl)noc2C)no1`, the IC90 was more than 8.35 µM. Further, the pIC50 (PBLUC_HILL_SLOPE 25.8, PBLUC_R_SQUARED 0.198, read-out: LUCIFERASE INFECTION ASSAY - IC50) is 5.09.
For the compound `CCc1c(C)[nH]c2cc(-c3ccc(OC)cc3)nn2c1=O`, the IC90 was found to be 3.98 µM. Under “PBLUC_HILL_SLOPE 29.9, PBLUC_R_SQUARED 0.167, read-out: LUCIFERASE INFECTION ASSAY - IC50”, the pIC50 was 5.43.
On to `COc1ccc(C(=O)/C=C/c2cccc3cccnc23)cc1Br`, for which the IC90 is more than 10 µM. Besides, the pIC50 (PBLUC_HILL_SLOPE 24.4, PBLUC_R_SQUARED 0.237, read-out: LUCIFERASE INFECTION ASSAY - IC50) is less than 5.00.
Regarding `CC(C)(C)NC(=S)Nc1cc(C(F)(F)F)cc(C(F)(F)F)c1`, the IC90 is more than 9.58 µM. Besides, the pIC50 (PBLUC_HILL_SLOPE 27.4, PBLUC_R_SQUARED 0.229, read-out: LUCIFERASE INFECTION ASSAY - IC50) was 5.02.
As for `Cc1nc(C(=O)N2CCc3c(c(C(=O)NCc4ccccn4)nn3CCc3ccccc3)C2)cs1`, the IC90 is 2.47 µM. Also, the pIC50 (PBLUC_HILL_SLOPE 26.7, PBLUC_R_SQUARED 0.676, read-out: LUCIFERASE INFECTION ASSAY - IC50) is 5.64.
As for `Cc1cc(C)c(NC(=NC2CCCCC2)Nc2c(C)cc(C)cc2C)c(C)c1`, the IC90 came out at 9.33 µM. Where the note is “PBLUC_HILL_SLOPE 26.1, PBLUC_R_SQUARED 0.486, read-out: LUCIFERASE INFECTION ASSAY - IC50”, the pIC50 was 5.07.
For the compound `COCCn1c(C(=O)OC)c(NC(=O)c2ccco2)c2cc(NCC(C)c3ccccc3)cnc21` (configuration not stated), the IC90 is more than 6.93 µM. Further, for the setting “PBLUC_HILL_SLOPE 27.9, PBLUC_R_SQUARED 0.298, read-out: LUCIFERASE INFECTION ASSAY - IC50”, the pIC50 was 5.18.
As to `CC(Nc1ccc(Oc2cccc(F)c2)cc1)C(=O)N1CCNC1=O` (configuration not stated), the IC90 came to 1.08 µM. Moreover, the pIC50 (PBLUC_HILL_SLOPE 25, PBLUC_R_SQUARED 0.491, read-out: LUCIFERASE INFECTION ASSAY - IC50) was 6.00.
`COc1ccc(-c2cnc3cnc(-c4ccc(N)nc4)cn23)cn1`: the IC90 is 9.27 µM. The pIC50 (PBLUC_HILL_SLOPE 29.9, PBLUC_R_SQUARED 0.596, read-out: LUCIFERASE INFECTION ASSAY - IC50) was 5.06.
Consider `Cc1c(C(=O)OC(C(=O)c2ccccc2)c2ccccc2)sc2ncn(C)c(=O)c12` (configuration not stated), for which the IC90 worked out at 8.68 µM. The pIC50 (PBLUC_HILL_SLOPE 24.2, PBLUC_R_SQUARED 0.462, read-out: LUCIFERASE INFECTION ASSAY - IC50) is 5.10.
For `CC(C)N(c1ccccc1)c1ccc(NC(=O)Nc2ccccc2)cc1`, the IC90 is 3.58 µM. The pIC50 (PBLUC_HILL_SLOPE 27.4, PBLUC_R_SQUARED 0.0577, read-out: LUCIFERASE INFECTION ASSAY - IC50) was 5.48.
In the case of `Cn1c(SCC#N)nnc1-c1ccc(C(C)(C)C)cc1`, the IC90 was determined as 1.34 µM. In addition, where the note is “PBLUC_HILL_SLOPE 23.6, PBLUC_R_SQUARED 0.364, read-out: LUCIFERASE INFECTION ASSAY - IC50”, the pIC50 is 5.91.
Regarding `C=S(NC(=O)c1ccc(Cl)cc1)c1sc(C(=O)OCC)c2c1C(=O)CCC2` (configuration not stated), the 90% effect concentration (IC90) was more than 7.78 µM. Besides, under “PBLUC_HILL_SLOPE 23.8, PBLUC_R_SQUARED 0.121, read-out: LUCIFERASE INFECTION ASSAY - IC50”, the pIC50 was less than 5.11.
Take `CN(C)c1cccc(-c2cnc(N)c(-c3ccc(O)cc3)c2)c1`: the IC90 was more than 10.8 µM. Further, the pIC50 (PBLUC_HILL_SLOPE 24.2, PBLUC_R_SQUARED 0.305, read-out: LUCIFERASE INFECTION ASSAY - IC50) was 4.98.
On to `CCC1CCc2sc(C(=O)Nc3ccccc3O)cc2C1` (configuration not stated), for which the IC90 is more than 10 µM. Also, the pIC50 (PBLUC_HILL_SLOPE 24.2, PBLUC_R_SQUARED 0.273, read-out: LUCIFERASE INFECTION ASSAY - IC50) is 5.01.
On to `COc1ccc([N+](=O)[O-])cc1C(=O)NCCOc1ccc2ccccc2c1`, for which the IC90 was more than 10 µM. Also, the pIC50 (PBLUC_HILL_SLOPE 24.5, PBLUC_R_SQUARED 0.535, read-out: LUCIFERASE INFECTION ASSAY - IC50) was 5.02.
For `O=C(C1CCCN(c2cnccn2)C1)N1CCN(C(c2ccc(F)cc2)c2ccc(F)cc2)CC1` (configuration not stated), the IC90 was more than 10 µM. The pIC50 (PBLUC_HILL_SLOPE 27.2, PBLUC_R_SQUARED 0.0353, read-out: LUCIFERASE INFECTION ASSAY - IC50) is 5.01.
On to `O=C(Nc1ccc(S(=O)(=O)NCCCN2CCOCC2)cc1)c1csc(-c2ccsc2)n1`, for which the 90% effect concentration (IC90) was more than 10 µM. For the same compound, the pIC50 (PBLUC_HILL_SLOPE 27, PBLUC_R_SQUARED 0.0565, read-out: LUCIFERASE INFECTION ASSAY - IC50) was 5.02.
With `c1ccc(-c2cc(-c3ccc(NC4=NCCCS4)cc3)nc3ccccc23)cc1`, the IC90 was found to be 9.46 µM. Besides, the pIC50 (PBLUC_HILL_SLOPE 28.5, PBLUC_R_SQUARED 0.262, read-out: LUCIFERASE INFECTION ASSAY - IC50) was 5.06.
As to `CCc1c(C(=O)/C=C/c2cc(OC)c(O)c(OC)c2)oc2ccc(C)cc12`, the IC90 amounted to 7.96 µM. The pIC50 (PBLUC_HILL_SLOPE 25.7, 54.1, PBLUC_R_SQUARED 0.301, 0.609, read-out: LUCIFERASE INFECTION ASSAY - IC50) is 5.13.
With `CN(C)C(=O)c1ccc(NCC(=O)N2N=C(c3ccc(Cl)cc3)CC2c2ccco2)cc1` (configuration not stated), the IC90 turned out to be 8.21 µM. For the setting “PBLUC_HILL_SLOPE 25.7, PBLUC_R_SQUARED 0.49, read-out: LUCIFERASE INFECTION ASSAY - IC50”, the pIC50 was 5.12.
As for `Cn1c(Nc2ccccc2)nc2cnc(-c3ccc(Cl)cc3)cc21`, the IC90 was more than 10 µM. The pIC50 (PBLUC_HILL_SLOPE 23.8, PBLUC_R_SQUARED 0.319, read-out: LUCIFERASE INFECTION ASSAY - IC50) is 5.01.
As to `O=C(NC1CCN(Cc2ccccc2)CC1)c1oc2ccccc2c1COc1ccccc1`, the IC90 is more than 10 µM. The pIC50 (PBLUC_HILL_SLOPE 25.1, PBLUC_R_SQUARED 0.225, read-out: LUCIFERASE INFECTION ASSAY - IC50) is less than 5.00.
